{"source": "patent US20090232866A1", "about": "“Oligopeptides as coating material for medical products” (priority 2003, published 2009)", "test_system": "coronary arteries of pigs", "experiment": "Balloon angioplasty and stent implantation in pig coronary arteries, IVUS assessment of neointimal proliferation after 4 weeks", "type": "in vivo, Domestic pigs", "details": "local administration via perfusion balloon, 4 weeks after balloon angioplasty and stent implantation, 7 pigs per group", "note": "*: point of attachment. CH2Cl = ClC*"}
{"substance": "Ac-Tyr-Val-Ala-Asp-chloromethylketone (Ac-YVAD-CH2Cl) [Ac-YVAD-CMK]", "values": [{"measurement": "reduction of maximum plaque area in comparison with the negative control group", "setting": "fraction of control value", "value": "approximately ⅓"}, {"measurement": "reduction of plaque volume in comparison with the negative control group", "setting": "fraction of control value", "value": "approximately ⅙"}, {"measurement": "reduction of the stenotisized area in comparison with the negative control group", "setting": "percent of control value", "value": "approximately 40%"}]}
